Experimental data as given in PubChem BioAssay (NCI).
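Exposure lasted 48 hours, with cells grown in 96-well plates and compounds tested at five concentrations. GI50 marks 50% less growth. TGI: total growth inhibition.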

Experiments:
Test in all cases: NCI tumour cell line growth inhibition, 48 h
PC-3 prostate = test system: PC-3 prostate
NCI-H522 lung = test system: NCI-H522 lung
SF-295 CNS = test system: SF-295 CNS
HOP-62 NSCLC = test system: HOP-62 NSCLC
RPMI-8226 leukemia = test system: RPMI-8226 leukemia
M14 melanoma = test system: M14 melanoma
KM12 colon = test system: KM12 colon
COLO 205 colon = test system: COLO 205 colon
SF-268 CNS = test system: SF-268 CNS
OVCAR-4 ovarian = test system: OVCAR-4 ovarian
NCI-H23 lung = test system: NCI-H23 lung
HCT-116 colon = test system: HCT-116 colon
786-0 renal = test system: 786-0 renal
HT29 colon = test system: HT29 colon
BT-549 breast = test system: BT-549 breast
OVCAR-8 ovarian = test system: OVCAR-8 ovarian
LOX IMVI melanoma = test system: LOX IMVI melanoma
SNB-19 CNS = test system: SNB-19 CNS
SK-MEL-28 melanoma = test system: SK-MEL-28 melanoma
MOLT-4 leukemia = test system: MOLT-4 leukemia
SW-620 colon = test system: SW-620 colon
NCI/ADR-RES ovarian = test system: NCI/ADR-RES ovarian
NCI-H460 lung = test system: NCI-H460 lung
SK-MEL-2 melanoma = test system: SK-MEL-2 melanoma
A498 renal = test system: A498 renal
SNB-75 CNS = test system: SNB-75 CNS
CAKI-1 renal = test system: CAKI-1 renal
TK-10 renal = test system: TK-10 renal
A549 NSCLC = test system: A549 NSCLC
SK-MEL-5 melanoma = test system: SK-MEL-5 melanoma
HCC-2998 colon = test system: HCC-2998 colon
MDA-MB-435 = test system: MDA-MB-435
OVCAR-5 ovarian = test system: OVCAR-5 ovarian
UACC-62 melanoma = test system: UACC-62 melanoma
OVCAR-3 ovarian = test system: OVCAR-3 ovarian
ACHN renal = test system: ACHN renal
U251 CNS = test system: U251 CNS
SN12C renal = test system: SN12C renal
MDA-MB-231 breast = test system: MDA-MB-231 breast
IGROV1 ovarian = test system: IGROV1 ovarian
UO-31 renal = test system: UO-31 renal
T-47D breast = test system: T-47D breast
K-562 leukemia = test system: K-562 leukemia
MALME-3M melanoma = test system: MALME-3M melanoma
MCF7 breast = test system: MCF7 breast
EKVX NSCLC = test system: EKVX NSCLC
HCT-15 colon = test system: HCT-15 colon
CCRF-CEM leukemia = test system: CCRF-CEM leukemia
DU-145 prostate = test system: DU-145 prostate
RXF 393 renal = test system: RXF 393 renal
HOP-92 NSCLC = test system: HOP-92 NSCLC

`Cc1cc(C(=O)NC(C)(C)C)cc(C#Cc2ccc3c4c(oc3c2)C(C)(C)c2cc(NS(C)(=O)=O)ccc2C4=O)n1` showed a GI50 (PC-3 prostate) of 2.96 µM, a TGI (PC-3 prostate) of over 100 µM and a GI50 (NCI-H522 lung) of 4.54 µM. It also gave a TGI (NCI-H522 lung) of over 100 µM, a GI50 (SF-295 CNS) of 2.12 µM and a TGI (SF-295 CNS) of 5.64 µM. For the same molecule, the GI50 (HOP-62 NSCLC) was 2.31 µM, the TGI (HOP-62 NSCLC) was over 100 µM and the GI50 (RPMI-8226 leukemia) was 1.11 µM. For the same molecule, the TGI (RPMI-8226 leukemia) was 4.67 µM, the GI50 (M14 melanoma) was 1.26 µM and the TGI (M14 melanoma) was 18.6 µM. It also gave a TGI (KM12 colon) of 40.7 µM, a GI50 (COLO 205 colon) of 1.34 µM and a TGI (COLO 205 colon) of 5.5 µM. It also gave a GI50 (SF-268 CNS) of 3.34 µM, a TGI (SF-268 CNS) of over 100 µM and a GI50 (OVCAR-4 ovarian) of 3.2 µM. For the same molecule, the TGI (OVCAR-4 ovarian) was over 100 µM, the GI50 (NCI-H23 lung) was 2.63 µM and the TGI (NCI-H23 lung) was over 100 µM. The GI50 (HCT-116 colon) was 1.69 µM, the TGI (HCT-116 colon) was over 100 µM and the GI50 (786-0 renal) was 1.7 µM. The TGI (786-0 renal) was 12.5 µM, the GI50 (HT29 colon) was 1.2 µM and the TGI (HT29 colon) was over 100 µM. For the same molecule, the GI50 (BT-549 breast) was 1.26 µM, the TGI (BT-549 breast) was 8.1 µM and the GI50 (OVCAR-8 ovarian) was 3.09 µM. The TGI (OVCAR-8 ovarian) was over 100 µM, the GI50 (LOX IMVI melanoma) was 2.59 µM and the TGI (LOX IMVI melanoma) was over 100 µM. The GI50 (SNB-19 CNS) was 3.23 µM, the TGI (SNB-19 CNS) was over 100 µM and the GI50 (SK-MEL-28 melanoma) was 1.93 µM. It also gave a TGI (SK-MEL-28 melanoma) of over 100 µM, a GI50 (MOLT-4 leukemia) of 2.39 µM and a TGI (MOLT-4 leukemia) of over 100 µM. For the same molecule, the GI50 (SW-620 colon) was 1.03 µM, the TGI (SW-620 colon) was over 100 µM and the GI50 (NCI/ADR-RES ovarian) was 2.86 µM. It also gave a TGI (NCI/ADR-RES ovarian) of over 100 µM, a GI50 (NCI-H460 lung) of 2.31 µM and a TGI (NCI-H460 lung) of over 100 µM. It also gave a GI50 (SK-MEL-2 melanoma) of 1.98 µM, a TGI (SK-MEL-2 melanoma) of 7.87 µM and a GI50 (A498 renal) of 2.1 µM. For the same molecule, the TGI (A498 renal) was over 100 µM, the GI50 (SNB-75 CNS) was 1.22 µM and the TGI (SNB-75 CNS) was 22.4 µM. For the same molecule, the GI50 (CAKI-1 renal) was 2.51 µM, the TGI (CAKI-1 renal) was over 100 µM and the GI50 (TK-10 renal) was 3.99 µM. The TGI (TK-10 renal) was over 100 µM, the GI50 (A549 NSCLC) was 3.01 µM and the TGI (A549 NSCLC) was over 100 µM. It also gave a GI50 (SK-MEL-5 melanoma) of 1.84 µM, a TGI (SK-MEL-5 melanoma) of 5.31 µM and a GI50 (HCC-2998 colon) of 3.06 µM. For the same molecule, the TGI (HCC-2998 colon) was over 100 µM, the GI50 (MDA-MB-435) was 0.518 µM and the TGI (MDA-MB-435) was 21.1 µM. The GI50 (OVCAR-5 ovarian) was 1.33 µM, the TGI (OVCAR-5 ovarian) was over 100 µM and the GI50 (UACC-62 melanoma) was 1.4 µM. The TGI (UACC-62 melanoma) was over 100 µM, the GI50 (OVCAR-3 ovarian) was 2.82 µM and the TGI (OVCAR-3 ovarian) was 31.8 µM. The GI50 (ACHN renal) was 1.78 µM, the TGI (ACHN renal) was over 100 µM and the GI50 (U251 CNS) was 3.1 µM. The TGI (U251 CNS) was over 100 µM, the GI50 (SN12C renal) was 1.95 µM and the TGI (SN12C renal) was over 100 µM. It also gave a GI50 (MDA-MB-231 breast) of 3.49 µM, a TGI (MDA-MB-231 breast) of over 100 µM and a GI50 (IGROV1 ovarian) of 2.59 µM. It also gave a TGI (IGROV1 ovarian) of over 100 µM, a GI50 (UO-31 renal) of 1.2 µM and a TGI (UO-31 renal) of over 100 µM. For the same molecule, the GI50 (T-47D breast) was 2.41 µM, the TGI (T-47D breast) was over 100 µM and the GI50 (K-562 leukemia) was 2.31 µM. The TGI (K-562 leukemia) was over 100 µM, the GI50 (MALME-3M melanoma) was 1.53 µM and the TGI (MALME-3M melanoma) was over 100 µM. For the same molecule, the GI50 (MCF7 breast) was 1.76 µM, the TGI (MCF7 breast) was over 100 µM and the GI50 (EKVX NSCLC) was 4.98 µM. For the same molecule, the TGI (EKVX NSCLC) was over 100 µM, the GI50 (HCT-15 colon) was 1.93 µM and the TGI (HCT-15 colon) was over 100 µM. The GI50 (CCRF-CEM leukemia) was 2.12 µM, the TGI (CCRF-CEM leukemia) was over 100 µM and the GI50 (DU-145 prostate) was 3.17 µM. For the same molecule, the TGI (DU-145 prostate) was over 100 µM, the GI50 (RXF 393 renal) was 0.535 µM and the TGI (RXF 393 renal) was 3.34 µM. For the same molecule, the GI50 (HOP-92 NSCLC) was 0.102 µM and the TGI (HOP-92 NSCLC) was 2.44 µM.
